According to publication PMC6686047, “Efficient Inhibition of Human Papillomavirus Infection by L2 Minor Capsid-Derived Lipopeptide” (mBio, 2019):
Bridge positions count the residues as written; N and C are the ends. Peptide text beside a SMILES is read from it. * marks the point of attachment. FITC = O=C1OC2(c3ccc(O)cc3Oc3cc(O)ccc32)c2ccc(NC(=S)*)cc21; Stearoyl = CCCCCCCCCCCCCCCCCC(=O)*

Experiments:
[1] = tested on: HPV-GFP (HPV16 pseudovirus carrying GFP); format: cell-based; settings: HeLa cells; ∼500 nM lipopeptide during inoculation; GFP at 36 hpi
[2] = tested on: HPV-Lucia (HPV16 pseudovirus carrying Lucia); settings: for Relative anti-HPV activity: CHO-K1 cells, HPV-Lucia, Lucia activity at 36 hpi, potency compared with WT peptide (13-48, 100%) used at four concentrations
furin cleavage of HPV L2 = test: Furin cleavage of PSTCD-fused L2 (immunoblot); format: cell-based, HPV16; settings: CHO-K1 cells, HPV-L2-PSTCD-3×FLAG MOI of 50; 500 nM dRVRK, 500 nM 13-46st, 100 nM BafA1, 1 μM γ-secretase inhibitor XXI; anti-FLAG immunoblot
Procedure: (§1) FIG 5 The L2N lipopeptide blocks HPV entry without affecting HPV capsid priming and internalization. (A) Cell binding and uptake of L2N lipopeptide. HeLa cells were incubated with 500 nM FITC-m13-46st peptide for indicated times. Images were captured after three PBS washes. Bar, 25 μm. (B) L2N lipopeptide inhibits HPV-GFP entry. HeLa cells were treated with 500 nM L2N lipopeptide (13-46st) before (pre), during (co), or after (post) HPV-GFP inoculation. Mock, no peptide treatment. GFP intensity was analyzed at 36 hpi. Bar, 200 μm. (C) Peptide addition/withdrawal assays were performed as indicated in the schematic diagram (top). CHO-K1 cells were incubated with HPV-Lucia at 4°C for 2 h. […] Lucia activity was analyzed at 40 hpi. […] Intracellular L1 and L2 levels were determined by immunoblotting with MD2H11 and JWW-1, respectively. […] HPV L2 JWW-1 epitope exposure was analyzed by immunostaining with JWW-1 antibody (in red). […]
To further dissect how the L2N lipopeptide interfered with HPV entry, we tested whether furin cleavage, internalization, and JWW-1 epitope exposure of HPV were affected by peptide treatment in either CHO-K1 cells or HeLa cells. Furin cleavage was analyzed by infection of HPV PsV carrying Propionibacterium shermanii transcarboxylase domain (PSTCD)-fused L2. […] Internalization of viral particles was analyzed by detecting intracellular L1 and L2 at 2 h postinfection.

HeLa cells = test: L2N-FITC peptide binding and uptake assay; format: cell-based, homo sapiens; settings: 500 nM FITC-m13-46st for indicated times, three PBS washes, fluorescence imaging
Procedure: FIG 5 The L2N lipopeptide blocks HPV entry without affecting HPV capsid priming and internalization. (A) Cell binding and uptake of L2N lipopeptide. HeLa cells were incubated with 500 nM FITC-m13-46st peptide for indicated times. Images were captured after three PBS washes. Bar, 25 μm. (B) L2N lipopeptide inhibits HPV-GFP entry. HeLa cells were treated with 500 nM L2N lipopeptide (13-46st) before (pre), during (co), or after (post) HPV-GFP inoculation. Mock, no peptide treatment. GFP intensity was analyzed at 36 hpi. Bar, 200 μm. (C) Peptide addition/withdrawal assays were performed as indicated in the schematic diagram (top). CHO-K1 cells were incubated with HPV-Lucia at 4°C for 2 h. The 13-46st lipopeptide (500 nM) was subsequently added or withdrawn from the medium 1, 2, 4, 8, and 16 h after viral attachment. Lucia activity was analyzed at 40 hpi. (D) CHO-K1 cells were infected with HPV-L2-PSTCD-3×FLAG (MOI of 50) and treated with the indicated chemicals: 500 nM dRVRK, 500 nM L2N lipopeptide 13-46st (L2N), 100 nM BafA1, and 1 μM γ-secretase inhibitor XXI. L2 immunoblotting was performed with anti-FLAG antibody at 16 hpi. […] Intracellular L1 and L2 levels were determined by immunoblotting with MD2H11 and JWW-1, respectively. […] HPV L2 JWW-1 epitope exposure was analyzed by immunostaining with JWW-1 antibody (in red). […]

[3] = tested on: intracellular HPV L1 and L2; test: Immunoblot detection of intracellular L1 and L2; format: cell-based, HPV16; settings: CHO-K1 cells, HPV-GFP MOI of 50; 500 nM 13-46st, 100 nM BafA1 or both for 24 h
Procedure: as §1
FIG 6 The L2N lipopeptide blocks TGN trafficking of HPV, leading to rapid virion degradation. […] Localization of the TGN (green) was analyzed by immunostaining with anti-P230 antibody. […] The ratios of EdU puncta in the nucleus (B) or in the TGN (C) were quantified based on representative images under each condition. P values were determined by ordinary one-way ANOVA with Dunnett’s multiple-comparison test (n = 10) ****, P < 0.0001. […]

Molecule	inhibition of HPV-GFP infection by L2N-CVIM lipopeptides (in words) [1]	Relative anti-HPV activity [2]	other results
13-55CVIM: HPV16 L2N13-55 lipopeptide produced in 293T cells, CVIM motif isoprenylated, released by furin	suppressed HPV-GFP infection	10%	
13-48CVIM: HPV16 L2N13-48 lipopeptide produced in 293T cells, CVIM motif isoprenylated (geranylgeranylation), released by furin	suppressed HPV-GFP infection	100%	
SVIM: L2N13-48 peptide with cysteine-to-serine mutation in the CVIM motif, negative control	completely abolished their ability to inhibit HPV-GFP infection	0%	
CCCCCCCCCC(=O)N[C@@H](CCCN=C(N)N)C(=O)N[C@H](C(=O)N[C@@H](CCCCN)C(=O)N[C@@H](CCCN=C(N)N)C(=O)CCl)C(C)C [dRVRK] (HELM PEPTIDE1{[CCCCCCCCCC(=O)[*:2]].R.V.K.R.[ClC[*:1]]}$$$$V2.0)			furin cleavage of L2 (furin cleavage of HPV L2): furin cleavage was inhibited
CCCCCCCCCCCCCCCCCC(=O)NCCCC[C@H](NC(=O)[C@H](CCCCNC(=S)Nc1ccc2c(c1)C(=O)OC21c2ccc(O)cc2Oc2cc(O)ccc21)NC(=O)[C@H](CO)NC(=O)CNC(=O)[C@H](CC(C)C)NC(=O)[C@@H](NC(=O)[C@H](CCCNC(=N)N)NC(=O)[C@H](CC(=O)O)NC(=O)[C@H](C)NC(=O)[C@H](CC(C)C)NC(=O)[C@@H](NC(=O)[C@H](CC(N)=O)NC(=O)CNC(=O)[C@H](CCC(=O)O)NC(=O)[C@@H](NC(=O)[C@H](CCCCN)NC(=O)[C@H](CC(N)=O)NC(=O)[C@@H](NC(=O)[C@@H](NC(=O)[C@H](CC(=O)O)NC(=O)[C@@H]1CCCN1C(=O)[C@@H]1CCCN1C(=O)[C@@H]1CSSC[C@H](NC(=O)[C@H](CCC(N)=O)NC(=O)[C@H](CCCNC(=N)N)NC(=O)[C@H](Cc2ccc(O)cc2)NC(=O)[C@H](CC(C)C)NC(=O)[C@H](CC(N)=O)NC(=O)[C@H](CO)NC(=O)[C@H](C)NC(=O)[C@H](CO)NC(=O)[C@@H](N)CC(=O)O)C(=O)N[C@@H](CCC(N)=O)C(=O)N[C@@H](C(C)C)C(=O)N[C@@H]([C@@H](C)O)C(=O)NCC(=O)N[C@@H](CC(N)=O)C(=O)N1)C(C)C)C(C)C)C(C)C)[C@@H](C)O)[C@@H](C)CC)C(=O)O [FITC-m13-46st] (H-DSASNLYRQCQVTGNCPPDVVNKVEGNTLADRILGSK(FITC)K(Stearoyl)-OH; disulfide 10-16)			cell binding and uptake of the lipopeptide (HeLa cells): readily detected on HeLa cells at 15 min postincubation, and significant internalization was observed at 30 min postincubation and became apparent at 2 h postincubation; IC50 ([2]; 4 h): < 10 nM
CO/C1=C\C(C)=C\[C@@H](C)[C@@H](O)[C@@H](C)C/C(C)=C/C=C/[C@H](OC)[C@@H]([C@@H](C)[C@@H](O)[C@H](C)[C@@]2(O)C[C@@H](O)[C@H](C)[C@@H](C(C)C)O2)OC1=O [BafA1, bafilomycin A1]			intracellular full-length L1 and L2 levels [3]: prevented L1 and L2 degradation
